Literature values in publication PMC4891020, “Preclinical evaluation of a nanoformulated antihelminthic, niclosamide, in ovarian cancer” (Oncotarget, 2016).
Values after ≈ are worked out from the molar mass of the structure shown.

Experiments:
[1] = design: method as in earlier work

systemic bioavailability when administered orally: ~10%
water solubility [1]: 0.23 µg/mL (≈ 0.703 µM)
Structure (SMILES): O=C(Nc1ccc([N+](=O)[O-])cc1Cl)c1cc(Cl)ccc1O [Niclosamide, niclosamide]
